# Patent US9802927B2, “Oxadiazine compounds and methods of use thereof” (Denali Therapeutics, Inc., priority 2015, dated 2017)
# System: Aβ42
# Experiment: In vitro cell screening assay in H4 cells expressing human APP751: Aβ42 by sandwich ELISA
# Assay type: cell-based
# Conditions: compounds 0.003-10 μM, incubated overnight (16-18 h), sandwich ELISA of supernatant
# In short: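 Secreted Aβ42 measured by sandwich ELISA, C-terminal-specific capture and 4G8-HRP detection, TMB read at 450 nm, from supernatants of APP751-expressing H4 cells exposed overnight (16-18 h) to 0.003-10 μM compound in Pro293 medium, 0.33% DMSO. Data scaled between DMSO and DAPT controls; EC50 from variable-slope nonlinear regression.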
row,Structure (SMILES),EC50 [nM]
1,"COc1nc(C2=NOCC(c3cn(C)c4cccc(OC)c34)N2)ccc1-n1cnc(C)c1 (single isomer, unassigned; (-)) [Example 252A, (−)-5-(4-methoxy-1-methyl-1H-indol-3-yl)-3-(6-methoxy-5-(4-methyl-1H-imidazol-1-yl)pyridin-2-yl)-5,6-dihydro-4H-1,2,4-oxadiazine]",158
2,"COc1nc(C2=NOCC(c3cn(C)c4cc(F)c(F)cc34)N2)ccc1-n1cnc(C)c1 (single isomer, unassigned; (-)) [Example 223A, (−)-5-(5,6-difluoro-1-methyl-1H-indol-3-yl)-3-(6-methoxy-5-(4-methyl-1H-imidazol-1-yl)pyridin-2-yl)-5,6-dihydro-4H-1,2,4-oxadiazine]",130
3,"COc1nc(C2=NOCC(c3ccc4ncsc4c3)N2)ccc1-n1cnc(C)c1 (single isomer, unassigned; (+)) [Example 183B, (+)-5-(benzo [d]thiazol-6-yl)-3-(6-methoxy-5-(4-methyl-1H-imidazol-1-yl)pyridin-2-yl)-5,6-dihydro-4H-1,2,4-oxadiazine]",260
4,"COc1nc(C2=NOCC(c3cc(F)c(Cl)c(F)c3)N2)ccc1-n1cnc(C)c1 (single isomer, unassigned; (+)) [Example 267B, (+)-5-(4-chloro-3,5-difluorophenyl)-3-(6-methoxy-5-(4-methyl-1H-imidazol-1-yl)pyridin-2-yl)-5,6-dihydro-4H-1,2,4-oxadiazine]",24.9
5,"COc1nc(C2=NOCC(C3CCCCC3)N2)ccc1-n1cnc(C)c1 (single isomer, unassigned; (+)) [Example 61B, (+)-5-cyclohexyl-3-(6-methoxy-5-(4-methyl-1H-imidazol-1-yl)pyridin-2-yl)-5,6-dihydro-4H-1,2,4-oxadiazine]",57.8
6,"COc1nc(C2=NOCC(c3cc(F)cc(F)c3)N2)ccc1-n1cnc(C)c1 (single isomer, unassigned; (-)) [Example 81A, (−)-5-(3,5-difluorophenyl)-3-(6-methoxy-5-(4-methyl-1H-imidazol-1-yl)pyridin-2-yl)-5,6-dihydro-4H-1,2,4-oxadiazine]",> 3000

# Continued, values first:
row,EC50 [nM],Structure (SMILES)
1,9.2,"COc1nc(C2=NOCC(c3cn(C(C)C)c4cc(F)ccc34)N2)ccc1-n1cnc(C)c1 (single isomer, unassigned; (+)) [Example 219A, (+)-5-(6-fluoro-1-isopropyl-1H-indol-3-yl)-3-(6-methoxy-5-(4-methyl-1H-imidazol-1-yl)pyridin-2-yl)-5,6-dihydro-4H-1,2,4-oxadiazine]"
2,> 3000,"COc1ccc(C2CON=C(c3ccc(-n4cnc(C)c4)c(OC)n3)N2)cc1 (single isomer, unassigned; (-)) [Example 54A, (−)-3-(6-methoxy-5-(4-methyl-1H-imidazol-1-yl)pyridin-2-yl)-5-(4-methoxyphenyl)-5,6-dihydro-4H-1,2,4-oxadiazine]"
3,474,"COc1nc(C2=NOCC(c3ccc4c(c3)CCC4)N2)ccc1-n1cnc(C)c1 (single isomer, unassigned; (-)) [Example 248A, (−)-5-(2,3-dihydro-1H-inden-5-yl)-3-(6-methoxy-5-(4-methyl-1H-imidazol-1-yl)pyridin-2-yl)-5,6-dihydro-4H-1,2,4-oxadiazine]"
4,450,"COc1nc(C2=NOCC(c3ccc(C#N)cc3)N2)ccc1-n1cnc(C)c1 (single isomer, unassigned; (+)) [Example 151B, (+)-4-(3-(6-methoxy-5-(4-methyl-1H-imidazol-1-yl)pyridin-2-yl)-5,6-dihydro-4H-1,2,4-oxadiazin-5-yl) benzonitrile]"
5,> 3000,"COc1nc(C2=NOCC(c3cccc(C#N)c3)N2)ccc1-n1cnc(C)c1 (single isomer, unassigned; (-)) [Example 141A, (−)-3-(3-(6-methoxy-5-(4-methyl-1H-imidazol-1-yl)pyridin-2-yl)-5,6-dihydro-4H-1,2,4-oxadiazin-5-yl) benzonitrile]"
